The results in this text go back to US8399689B2, “Chrysophaentin antimicrobial compounds that inhibit FtsZ protein” (The United States of America, as represented by the …, priority 2010, dated 2013).

Converted amounts (≈) assume the structure as drawn. Where two headings read alike, the source gives them in different places. A value given as a limit tells only on which side of the number the result lay.

The test system of test [1] is Staphylococcus aureus (SA, ATCC 25923). Description: Agar disk diffusion assay, S. aureus. The test is classed as cell-based. Conditions: Lowest concentrations leading to 8-10 mm zones of inhibition. As for the experimental part: (§1) Compounds 1-8 were tested for antimicrobial activity against Staphylococcus aureus (SA, ATCC 25923), methicillin-resistant S. aureus (MRSA, ATCC BAA-41), multidrug-resistant S. aureus (MDRSA, ATCC BAA-44), Enterococcus faecium (EF, ATCC 49032), vancomycin-resistant E. Faecium (VRE, ATCC 700221), and Bacillus subtilis (ATCC 49343) using a modified disk diffusion assay and microbroth liquid dilution assays. For disk diffusion assays, agar plates seeded with suspensions of bacteria were prepared by adding 500 μL of a 24 h culture of bacteria to 100 mL of autoclaved Mueller Hinton II agar and cooled to 55° C. Seeded liquid agar (10 mL) was transferred immediately to square Petri dishes and allowed to cool for 1 h. Control drugs used for each microorganism included kanamycin (50 μg) for S. aureus, and nitrofurantoin (25 μg) for MRSA. Following incubation at 37° C. for 18 h, zones of inhibition were measured. MICso values for compounds 1 and 4-8 were determined using a microbroth dilution assay outlined in the Clinical and Laboratory Standards Institute methods for susceptibility tests for bacteria that grow aerobically. Briefly, single bacterial colonies were used to inoculate 4 mL of Trypticase Soy broth (BD) for overnight growth and inoculum for each were diluted to 5×10^5 CFU/mL using the 0.5 McFarland standard. In a 96 well plate (Costar, round bottom), control antibiotics (oxacillin for SA and MRSA, vancomycin for EF and VRE, chloramphenicol for B. subtilis) or natural product inhibitors were added to Muller Hinton II broth (for S. aureus, MRSA, and B. subtilis) or 10% brain heart infusion broth (for E. faecium and VRE) in the first column of the well plates, and serially diluted across the plate, reserving wells for a positive growth control (no treatment). 10 μL of diluted bacteria were added to all wells with the exception of those kept for broth blanks (MHII or brain heart infusion broth only). Plates were incubated at 37° C. overnight and read at absorbance 600 nm on a Molecular Devices plate reader. Growth curves were plotted and ICso values obtained using Kalidagraph software.

Test [2] deals with methicillin-resistant S. aureus (MRSA, ATCC BAA-41). Put plainly: Agar disk diffusion assay, MRSA. In kind it is cell-based, Staphylococcus aureus. The following applies: Lowest concentrations leading to 8-10 mm zones of inhibition. As for the experimental part:
as §1

The test system of test [3] is Enterococcus faecium (EF, ATCC 49032). Description: Agar disk diffusion assay, E. faecium. The test is classed as cell-based. The following applies: Lowest concentrations leading to 8-10 mm zones of inhibition. As for the experimental part: as §1
Test [4] concerns vancomycin-resistant E. Faecium (VRE, ATCC 700221). Description: Agar disk diffusion assay, VREF. The test is classed as cell-based, Enterococcus faecium. The following applies: Lowest concentrations leading to 8-10 mm zones of inhibition. As for the experimental part:
as §1

For test [5], the system named is Staphylococcus aureus (SA, ATCC 25923). Put plainly: Microbroth dilution assay, S. aureus. Conditions: for MIC50: Staphylococcus aureus. The test is classed as cell-based. As for the experimental part: as §1
The test system of test [6] is methicillin-resistant S. aureus (MRSA, ATCC BAA-41). Description: Microbroth dilution assay, MRSA. In kind it is cell-based, Staphylococcus aureus. Conditions: for MIC50: Staphylococcus aureus, read-out: MIC50 (μg/mL) MRSA. Here is the method: as §1
In test [7] the test system is Enterococcus faecium (EF, ATCC 49032). Put plainly: Microbroth dilution assay, E. faecium. In kind it is cell-based. The following applies: concentration at which growth is reduced by 50%; for MIC50: Enterococcus faecium, ATCC49032, microbroth dilution, read-out: MIC50 (μg/mL) E. faecium. Here is the method: as §1
The test system of test [8] is vancomycin-resistant E. Faecium (VRE, ATCC 700221). Description: Microbroth dilution assay, VREF. The test is classed as cell-based, Enterococcus faecium. The following applies: for MIC50: Enterococcus faecium, read-out: MIC50 (μg/mL) VREF. Here is the method: as §1
Test [9] has as its system Gram-positive pathogens (S. aureus, B. subtilis, E. faecium, MRSA, MDRSA, VREF). Put plainly: Disk diffusion and microbroth dilution assays, strains taken together. The test is classed as cell-based.
Source text: Solid agar disk diffusion and microbroth dilution assays were used to evaluate the antimicrobial activities of compounds 1, hexaacetate 1a, and 4-8 toward clinically relevant, Gram-positive pathogens, including the drug-susceptible bacteria Staphylococcus aureus, Bacillus subtilis and Enterococcus faecium, and drug-resistant strains methicillin-resistant S. aureus (MRSA), multidrug-resistant S. aureus (MDRSA), and vancomycin-resistant E. faecium (VREF) (see Table 7, Example 2).
as §1, with “In a 96 well plate (Costar, round bottom), control antibiotics (oxacillin for SA and MRSA, vancomycin for EF and VRE, chloramphenicol for B. subtilis) or natural product inhibitors were added to Muller Hinton II broth (for S. aureus, MRSA, and B. subtilis) or 10% brain heart infusion broth (for E. faecium and VRE) in the first column of the well plates, and serially diluted across the plate, reserving wells for a positive growth control (no treatment). 10 μL of diluted bacteria were added to all wells with the exception of those kept for broth blanks (MHII or brain heart infusion broth only).” left out, “Growth curves were plotted and ICso values obtained using Kalidagraph software.” left out

The subject of test [10] is tubulin. Description: Tubulin polymerization assay. The test is classed as biochemical. Conditions: chrysophaentin 1 at 150 μM; paclitaxel, nocodazole at standardized concentrations.
Where [11] appears, read: ATCC25923, microbroth dilution, concentration at which growth is reduced by 50%, read-out: MIC50 (μg/mL) S. aureus.
The mark [12] stands for this setting: microbroth dilution, concentration at which growth is reduced by 50%.
The mark [13] stands for this setting: ATCC25923, read-out: MIC50 (μg/mL) S. aureus.

With `Oc1cc(O)c2c(c1)C/C(Cl)=C\Cc1cc(c(Br)cc1O)Oc1c(O)cc(cc1O)C/C(Cl)=C\Cc1cc(c(Br)cc1O)O2` [Compound 4, chrysophaentin 4], in [1], the “Agar disk diffusion (μg/disk) S. aureus” value is given as 25 μg/disk. Moreover, in [2], the “Agar disk diffusion (μg/disk) MRSA” value is reported as 25 μg/disk. In addition, in [3], the “Agar disk diffusion (μg/disk) E. faecium” value is 25 μg/disk. In addition, in [4], the “Agar disk diffusion (μg/disk) VREF” value is 25 μg/disk. The MIC50 in [5] (setting [11]) is over 25 µg/mL; in [6] (setting [12]), 19 ± 5.9 µg/mL (≈ 24.8 µM); in test [7] it was over 50 µg/mL; in test [8] (setting [12]), over 25 µg/mL. Moreover, the “fold change in MIC50 versus chrysophaentin 1” value in test [9] (all four strains) is about 12 fold.
As for `Oc1cc(Cl)c2cc1C/C=C(/Cl)Cc1cc(O)c(c(O)c1)Oc1cc(c(O)cc1Cl)C/C=C(/Cl)Cc1cc(O)c(c(O)c1)O2` [Compound 6, chrysophaentin 6], the “Agar disk diffusion (μg/disk) S. aureus” value in test [1] came out at 10 μg/disk. For the same molecule, the “Agar disk diffusion (μg/disk) MRSA” value in test [2] is listed as 10 μg/disk. For the same molecule, in test [3], the “Agar disk diffusion (μg/disk) E. faecium” value worked out at 10 μg/disk. Moreover, in [4], the “Agar disk diffusion (μg/disk) VREF” value amounted to 10 μg/disk. Besides, the MIC50 is 4 to 6 µg/mL (≈ 5.9 to 8.85 µM) in test [5] (setting [11]), 4 to 6 µg/mL (≈ 5.9 to 8.85 µM) in test [6] (setting [12]), over 25 µg/mL in test [7] and about 9.5 µg/mL (≈ 14 µM) in test [8] (setting [12]). Besides, the “MIC50 (μg/mL) S. aureus” value in [5] (setting [12]) came out at 5.3 ± 1.9 µg/mL (≈ 7.81 µM). The “MIC50 (μg/mL) MRSA” value in test [6] (setting [12]) was found to be 4.2 ± 1.2 µg/mL (≈ 6.19 µM). Moreover, the “MIC50 (μg/mL) VREF” value in test [8] (setting [12]) was found to be 9.5 ± 3.0 µg/mL (≈ 14 µM). The “potency relative to compound 7” value in [9] is “at least 3 ×”.
For `Oc1cc(O)cc(C/C(Cl)=C\Cc2cc(Oc3c(O)cc(C/C(Cl)=C\Cc4cc(O)c(Cl)cc4O)cc3O)c(Cl)cc2O)c1` [Compound 5, chrysophaentin 5], the “Agar disk diffusion (μg/disk) S. aureus” value in [1] is 25 μg/disk. The “Agar disk diffusion (μg/disk) MRSA” value in test [2] is given as 10 μg/disk. In test [3], the “Agar disk diffusion (μg/disk) E. faecium” value is listed as 25 μg/disk. Besides, in [4], the “Agar disk diffusion (μg/disk) VREF” value amounted to 25 μg/disk. Moreover, the MIC50 in test [5] (setting [13]) was 10.5 ± 3.8 µg/mL (≈ 15.4 µM); in test [6] (setting [12]), 8.9 ± 2.8 µg/mL (≈ 13.1 µM); in [7], over 25 µg/mL; in [8] (setting [12]), over 25 µg/mL. For the same molecule, the “MIC50 (μg/mL) E. faecium” value in test [7] (microbroth dilution) is over 25 µg/mL. In test [8] (setting [12]), the “MIC50 (μg/mL) VREF” value was over 25 µg/mL.
For `CC(=O)O[C@H]1C(=O)[C@@]2(C)[C@H]([C@H](OC(=O)c3ccccc3)[C@]3(O)C[C@H](OC(=O)[C@H](O)[C@@H](NC(=O)c4ccccc4)c4ccccc4)C(C)=C1C3(C)C)[C@]1(OC(C)=O)CO[C@@H]1C[C@@H]2O` [paclitaxel, reference compound], the “tubulin polymerization velocity v” value in [10] is 80 min⁻¹.
For `Oc1cc(Cl)c2cc1C/C=C(/Cl)Cc1cc(O)c(c(O)c1)Oc1cc(c(O)cc1Br)C/C=C(/Cl)Cc1cc(O)c(c(O)c1)O2` [Compound 7, chrysophaentin 7], the “Agar disk diffusion (μg/disk) S. aureus” value in test [1] is recorded as “NA (NA, no zone of inhibition observed at 25 μg/disk)”. Moreover, the “Agar disk diffusion (μg/disk) MRSA” value in [2] is listed as “NA (NA, no zone of inhibition observed at 25 μg/disk)”. In addition, in test [3], the “Agar disk diffusion (μg/disk) E. faecium” value is listed as “NA (NA, no zone of inhibition observed at 25 μg/disk)”. For the same molecule, the “Agar disk diffusion (μg/disk) VREF” value in test [4] is given as “NA (NA, no zone of inhibition observed at 25 μg/disk)”. Also, the MIC50 in test [5] (setting [13]) is 16.6 ± 5.3 µg/mL (≈ 23 µM); in [6], 12.3 ± 3.1 µg/mL (≈ 17 µM); in test [7] it was over 50 µg/mL; in test [8], 24.6 ± 7.3 µg/mL (≈ 34 µM).
Turning to `Oc1cc(Cl)c2cc1C/C=C(/Cl)Cc1cc(O)c(c(O)c1Br)Oc1cc(c(O)cc1Cl)C/C=C(/Cl)Cc1cc(O)c(c(O)c1)O2` [Compound 8, chrysophaentin 8], the MIC50 in [5] (setting [11]) was 4 to 6 µg/mL (≈ 5.28 to 7.92 µM); in test [6] (setting [12]), 4 to 6 µg/mL (≈ 5.28 to 7.92 µM); in test [7] it was over 25 µg/mL; in [8] (setting [12]), about 9.5 µg/mL (≈ 12.5 µM).
In the case of `COC(=O)Nc1nc2ccc(C(=O)c3cccs3)cc2[nH]1` [nocodazole, reference compound], in test [10], the “tubulin polymerization velocity v” value was determined as 12 min⁻¹.
